Square brackets hold non-standard residues; d marks the D form. Peptide text beside a SMILES is read from it.
What was measured:
[1] = system: βTC-3 cells; test: Inhibition of IL-1β induced pancreatic β-cell death by TAT-IB peptides; assay type: cell-based; details: one single addition of peptide 1 μM, IL-1β every two days, 15 days
Protocol: We investigated the effects of the inventive L-TAT-IB(s) peptides on the promotion of β-cell apoptosis elicited by IL-1. PTC-3 cell cultures were incubated for 30 minutes with 1 μM of inventive L-TAT-IB1(s) peptides followed by 10 ng/mL of IL-1. A second addition of peptide (1 μM) was performed 24 hours later. Apoptotic cells were counted after two days of incubation with IL-1β using propidium iodide (red stained cell are dead cells) and Hoechst 33342 (blue stained cell are cells with intact plasma membrane) nuclear staining.
Long term inhibition of IL-1 induced cells death was examined by treating βTC-3 cells as described above, except that incubation of the cells with the peptides and IL-1β was sustained for 12 days. Additional peptides (1 μM) were added each day and additional IL-1β (10 ng/mL) was added every 2 days. […] Taken together, these experiments provide evidence that inventive TAT-IB(s) peptides are biologically active molecules able to prevent the effects of JNK signaling on cell fate.
Inhibition of IL-1β induced pancreatic β-cell death by the inventive D-TAT-IB1(s) peptide was analyzed. βTC-3 cells were incubated as described above for 30 minutes with one single addition of the indicated peptides (1, μM), then IL-1 (10 ng/ml) was added.
Apoptotic cells were then counted after two days of incubation with IL-1β by use of Propidium Iodide and Hoechst 33342 nuclear staining. A minimum of 1,000 cells were counted for each experiment. Standard Error of the Means (SEM) are indicated, n=5.
Long term inhibition of IL-1P induced cell-death by the D-TAT-IB1 peptide was also analyzed. βTC-3 cells were incubated as above for 30 minutes with one single addition of the indicated peptides (1 μM), then IL-1β (10 ng/ml) was added, followed by addition of the cytokine every two days. Apoptotic cells were then counted after 15 days of incubation with IL-1 by use of propidium iodide and Hoechst 33342 nuclear staining. […] A minimum of 1.000 cells were counted for each experiment.

[2] = system: WiDr cells; test: Irradiation (30 Gy) induced apoptosis of WiDr cells; assay type: cell-based, human; details: 1 μM added 30 minutes before 30 Gy, analyzed 48 hours later
Protocol: JNK is also activated by ionizing radiation. To determine whether inventive TAT-IB(s) peptides would provide protection against radiation-induced JNK damage, “WiDr” cells were irradiated (30 Gy) in presence or absence of D-TAT, inventive L-TAT-IB1(s) or inventive D-TAT-IB1(s) peptides (1 μM added 30 minutes before irradiation). Control cells (CTRL) were not irradiated. Cells were analyzed 48 hours later by means of PI and Hoechst 3342 staining, as described above. N=3, SEM are indicated.

[3] = system: 12-days-old rats; test: Neuroprotection against focal cerebral ischemia, permanent MCAO model; assay type: in vivo
Source text: Focal cerebral ischemia was induced in 12-days-old rats. Pups were anesthetized in an induction chamber with 2% isoflurane and during the operation anaesthesia was maintained using a mask under 2% isoflurane. MCAO was induced by electrocoagulating a main branch of the middle cerebral artery (MCA). Rats were placed on the right side, and an oblique dermal incision was made between the ear and eye. After excision of the temporal muscle, the cranial bone was removed from the frontal suture to a level below the zygomatic arch. […] The cranial skin incision was then closed. Rat pups were then placed in an incubator maintained at 37° C. until they awoke, and were then transferred to their mother.
6 hours later an inventive chimeric D-TAT-IB1(s) peptide according to SEQ ID NO: 11 was injected intraperitoneally. 24 hours after the coagulation, the rats were anesthetized with chloral hydrate and perfused through the ascending aorta with 4% paraformaldehyde in PBS. Brains were then removed and kept for 2 hours in the same fixative solution, and placed in a gradient of 30% sucrose in PBS for about 15 hours at 4° C. Brains were frozen in isopentane (−40° C.) and stored at −20° C. Coronal cryostat sections of 50 μm were collected on glass slides. The sections were stained with cresyl violet. Each tenth section was analyzed and the total volume of the lesion was calculated using the Neuroleucida programme. In the control group A, the mean lesion volume was 21.47 mm^3. […] A significant statistic difference is observed between group A and groups C, E and F (one-tailed t-test, p=0.030, p=0.002, p=0.001 respectively).

[4] = system: recombinant JNK1, JNK2 and JNK3; test: Solid phase kinase assay: JNK-mediated phosphorylation of c-Jun, ATF2 and Elk1; assay type: biochemical; details: GST-Jun (aa 1-73), 0-250 μM dosage study; fold less efficient
Protocol: The effects of the peptides on JNKs-mediated phosphorylation of their target transcription factors were investigated in vitro. Recombinant and non activated JNK1, JNK2 and JNK3 were produced using a TRANSCRIPTION AND TRANSLATION rabbit reticulocyte lysate kit (PROMEGA®) and used in solid phase kinase assays with c-jun, ATF2 and Elk1, either alone or fused to glutathione-S-transferase (GST), as substrates. Dose response studies were performed wherein inventive L-TAT or L-TAT-IB1(s) peptides (0-25 μM) were mixed with the recombinant JNK1, JNK2, or JNK3 kinases in reaction buffer (20 mM Tris-acetate, 1 mM EGTA, 10 mM p-nitrophenyl-phosphate (pNPP), 5 mM sodium pyrophosphate, 10 mM p-glycerophosphate, 1 mM dithiothreitol) for 20 minutes. The kinase reactions were then initiated by the addition of 10 mM MgCl2 and 5 pCi^33P-γ-dATP and 1 μg of either GST-Jun (aa 1-89), GST-AFT2 (aa 1-96) or GST-ELK1 (aa 307-428). GST-fusion proteins were purchased from Stratagene (La Jolla, Calif.).
Ten μL of glutathione-agarose beads were also added to the mixture. Reaction products were then separated by SDS-PAGE on a denaturing 10% polyacrylamide gel. Gels were dried and subsequently exposed to X-ray films (Kodak).
The ability of D-TAT, inventive D-TAT-IB1(s) and inventive L-TAT-IB1 (s) peptides (0-250 μM dosage study) to inhibit GST-Jun (aa 1-73) phosphorylation by recombinant JNK1, JNK2, and JNK3 by were analyzed as described above. Overall, D-TAT-IB1(s) peptide decreased JNK-mediated phosphorylation of c-Jun, but at levels approximately 10-20 fold less efficiently than L-TAT-IB1(s).

decrease of JNK-mediated phosphorylation of c-Jun, efficiency relative to L-TAT-IB1(s) [4]: 10-20 fold
SMILES: CC(C)C[C@@H](NC(=O)[C@@H](Cc1ccccc1)NC(=O)[C@H]1CCCN1C(=O)[C@@H](CCC(N)=O)NC(=O)[C@H](NC(=O)[C@H]1CCCN1C(=O)[C@@H](CCCNC(=N)N)NC(=O)[C@@H](CO)NC(=O)[C@@H](CCC(N)=O)NC(=O)[C@H](N)CC(=O)O)C(C)C)C(=O)N[C@H](CC(N)=O)C(=O)N[C@H](CC(C)C)C(=O)N[C@@H](C(=O)N[C@@H](C(=O)N1CCC[C@@H]1C(=O)N[C@H](CCCNC(=N)N)C(=O)N[C@H](CCCCN)C(=O)N1CCC[C@@H]1C(=O)N[C@H](CCCNC(=N)N)C(=O)N1CCC[C@@H]1C(=O)N1CCC[C@@H]1C(=O)N[C@H](CCCNC(=N)N)C(=O)N[C@H](CCCNC(=N)N)C(=O)N[C@H](CCCNC(=N)N)C(=O)N[C@H](CCC(N)=O)C(=O)N[C@H](CCCNC(=N)N)C(=O)N[C@H](CCCNC(=N)N)C(=O)N[C@H](CCCCN)C(=O)N[C@H](CCCCN)C(=O)N[C@H](CCCNC(=N)N)C(=O)NCC(=O)O)[C@H](C)O)[C@H](C)O [D-TAT-IB1(s)] (H-[dD][dQ][dS][dR][dP][dV][dQ][dP][dF][dL][dN][dL][dT][dT][dP][dR][dK][dP][dR][dP][dP][dR][dR][dR][dQ][dR][dR][dK][dK][dR]G-OH)
long term (15 day) protection against IL-1β induced cell death [1]: able to confer long term (15 day) protection
prevention of irradiation induced apoptosis [2]: able to prevent irradiation induced apoptosis
cerebral protection compared to saline group ([3]; dose of 1 mg/kg, 0.003 mg/kg and 0.0003): total sample was not large enough to reach a significant difference
cerebral protection ([3]; dose of 11 mg/kg, 3 mg/kg, 0.3 mg/kg and 0.03 mg/kg i.p.): contributes to a cerebral protection
dose at which the best protection is observed ([3]; i.p. 6 hours after MCAO): 0.03 mg/kg
mean lesion volume versus control group ([3]; i.p. 6 hours after MCAO, analysis at 24 hours, all treated groups): lower mean than the control group

— patent US8748395B2, “Cell-permeable peptide inhibitors of the JNK signal transduction pathway” (Xigen Inflammation Ltd., priority 2006, dated 2014)
